Laboratory results as given in ChEMBL document CHEMBL4000241, “Investigation of the anti-angiogenesis effects induced by deoxypodophyllotoxin-5-FU conjugate C069 against HUVE cells” (Bioorg Med Chem Lett, 2017).
Active and inactive are the calls of the source. The calls are words filed in the database; no cut-off is given here.

Assays:
HUVEC [1] = assay: Antiproliferative activity against HUVEC at 0.1 to 0.3 uM after 6 hrs by MTT assay; assay type: functional, cell-based; details: Homo sapiens
[2] = target: T1, Catenin beta-1 (Homo sapiens) (UniProt P35222); assay: Inhibition of beta-catenin phosphorylation in HUVEC after 24 hrs by Western blot analysis
T1 sequence (whole entry): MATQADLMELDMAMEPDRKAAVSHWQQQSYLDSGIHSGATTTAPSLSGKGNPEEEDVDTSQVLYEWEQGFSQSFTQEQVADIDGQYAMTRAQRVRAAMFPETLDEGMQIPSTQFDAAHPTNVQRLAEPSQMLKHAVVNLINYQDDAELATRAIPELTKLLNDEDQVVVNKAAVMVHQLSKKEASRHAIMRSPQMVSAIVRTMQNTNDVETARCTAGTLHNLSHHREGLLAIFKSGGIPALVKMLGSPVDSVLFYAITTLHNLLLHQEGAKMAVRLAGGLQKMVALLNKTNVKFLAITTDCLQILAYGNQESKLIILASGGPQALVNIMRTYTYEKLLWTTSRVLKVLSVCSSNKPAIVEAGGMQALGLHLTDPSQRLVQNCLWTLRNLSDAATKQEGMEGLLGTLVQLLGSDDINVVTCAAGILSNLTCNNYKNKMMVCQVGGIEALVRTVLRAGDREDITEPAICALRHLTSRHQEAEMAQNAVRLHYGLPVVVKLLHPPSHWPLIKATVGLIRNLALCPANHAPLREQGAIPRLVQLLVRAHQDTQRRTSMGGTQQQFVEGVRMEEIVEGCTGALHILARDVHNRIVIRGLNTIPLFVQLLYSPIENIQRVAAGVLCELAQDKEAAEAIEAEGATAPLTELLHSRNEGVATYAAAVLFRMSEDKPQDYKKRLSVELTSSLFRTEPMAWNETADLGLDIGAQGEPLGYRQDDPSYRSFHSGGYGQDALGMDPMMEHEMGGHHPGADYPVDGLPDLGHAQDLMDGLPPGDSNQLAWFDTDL

HUVEC [3] = assay: Vascular disrupting activity in HUVEC assessed as disruption of preformed tube like structure after 6 hrs by inverted phase contrast microscopy based matrigel assay; assay type: functional, cell-based; details: Homo sapiens
Chorioallantoic membrane = assay: Antiangiogenic activity in chicken fertilized egg chorioallantoic membrane assessed as reduction in branching of blood vessels after 48 hrs; assay type: functional, tissue-based; details: Gallus gallus
HUVEC [4] = assay: Downregulation of MMP-9 expression in HUVEC at 0.2 to 0.5 uM after 24 hrs by Western blot analysis; assay type: functional, cell-based; details: Homo sapiens
HUVEC [5] = assay: Antimigratory activity in HUVEC assessed as reduction in wound-healing at 0.1 to 0.3 uM after 12 hrs by inverted phase contrast microscopy; assay type: functional, cell-based; details: Homo sapiens
Homo sapiens = species on record: Homo sapiens; assay: Inhibition of Akt phosphorylation in HUVEC after 24 hrs by Western blot analysis
WI-38 [6] = assay: Antiproliferative activity against human WI38 cells at 20 to 100 uM after 12 to 48 hrs by MTT assay; assay type: cell-based; details: wi-38, 100 µM
HUVEC [7] = assay: Downregulation of MMP-2 expression in HUVEC at 0.2 to 0.5 uM after 24 hrs by Western blot analysis; assay type: functional, cell-based; details: Homo sapiens
HUVEC [8] = assay: Antiangiogenic activity in HUVEC assessed as inhibition of formation of tubular structures after 6 hrs by inverted phase contrast microscopy based matrigel assay; assay type: functional, cell-based; details: Homo sapiens
WI-38 [9] = assay: Antiproliferative activity against human WI38 cells at 30 uM after 12 to 48 hrs by MTT assay; assay type: cell-based; details: wi-38, 30 µM

Structure (SMILES)	Activity (HUVEC [1])	inhibition [2]	Activity (HUVEC [3])	Activity (Chorioallantoic membrane)	Activity (HUVEC [4])	Activity (HUVEC [5])	inhibition (Homo sapiens)	Activity (WI-38 [6])	Activity (HUVEC [7])	Activity (HUVEC [8])	Activity (WI-38 [9])
COc1cc([C@@H]2c3cc4c(cc3C[C@H]3COC(=O)[C@@H]32)OCO4)cc(OC)c1OC(=O)CCC(=O)NCCCCCCNC(=O)Cn1cc(F)c(=O)[nH]c1=O	Active	Dose-dependent effect	Dose-dependent effect	Dose-dependent effect	Active	Active	Dose-dependent effect	Non-Toxic	Active	Dose-dependent effect	
COc1cc([C@@H]2c3cc4c(cc3[C@@H](O[C@@H]3O[C@@H]5CO[C@@H](C)O[C@H]5[C@H](O)[C@H]3O)[C@H]3COC(=O)[C@H]23)OCO4)cc(OC)c1O [ETOPOSIDE]											Non-Toxic
